Active and inactive are the calls of the source. The calls are words filed in the database; no cut-off is given here.
Experiments:
[1] = test system: SF-295; experiment: Antiproliferative activity against human SF-295 cells assessed as cell growth inhibition at 10 uM by SRB assay relative to control; format: functional
[2] = test system: SK-MEL-28; experiment: Antiproliferative activity against human SK-MEL-28 cells assessed as cell growth inhibition at 10 uM by SRB assay relative to control; format: functional
[3] = test system: SK-MEL-5; experiment: Antiproliferative activity against human SK-MEL-5 cells assessed as cell growth inhibition at 10 uM by SRB assay relative to control; format: functional
[4] = test system: Malme-3M; experiment: Antiproliferative activity against human Malme-3M cells assessed as cell growth inhibition at 10 uM by SRB assay relative to control; format: functional
[5] = test system: CCRF-CEM; experiment: Antiproliferative activity against human CCRF-CEM cells assessed as cell growth inhibition at 10 uM by SRB assay; format: functional, cell-based
[6] = test system: K562; experiment: Antiproliferative activity against human K562 cells assessed as cell growth inhibition at 10 uM by SRB assay; format: functional, cell-based
[7] = test system: RPMI-8226; experiment: Antiproliferative activity against human RPMI-8226 cells assessed as cell growth inhibition at 10 uM by SRB assay; format: functional, cell-based
[8] = test system: SR; experiment: Antiproliferative activity against human SR cells assessed as cell growth inhibition at 10 uM by SRB assay; format: functional, cell-based
[9] = test system: A549; experiment: Antiproliferative activity against human A549 cells assessed as cell growth inhibition at 10 uM by SRB assay; format: functional, cell-based
[10] = test system: HOP-62; experiment: Antiproliferative activity against human HOP-62 cells assessed as cell growth inhibition at 10 uM by SRB assay; format: functional, cell-based
[11] = test system: NCI-H226; experiment: Antiproliferative activity against human NCI-H226 cells assessed as cell growth inhibition at 10 uM by SRB assay; format: functional
[12] = test system: NCI-H23; experiment: Antiproliferative activity against human NCI-H23 cells assessed as cell growth inhibition at 10 uM by SRB assay; format: functional
[13] = test system: NCI-H460; experiment: Antiproliferative activity against human NCI-H460 cells assessed as cell growth inhibition at 10 uM by SRB assay; format: functional, cell-based
[14] = test system: NCI-H522; experiment: Antiproliferative activity against human NCI-H522 cells assessed as cell growth inhibition at 10 uM by SRB assay; format: functional, cell-based
[15] = test system: NCI-H522; experiment: Antiproliferative activity against human NCI-H522 cells assessed as cell growth inhibition at 10 uM by SRB assay relative to control; format: functional
[16] = test system: COLO 205; experiment: Antiproliferative activity against human COLO 205 cells assessed as cell growth inhibition at 10 uM by SRB assay relative to control; format: functional
[17] = test system: HCC 2998; experiment: Antiproliferative activity against human HCC 2998 cells assessed as cell growth inhibition at 10 uM by SRB assay relative to control; format: functional
[18] = test system: COLO 205; experiment: Antiproliferative activity against human COLO 205 cells assessed as cell growth inhibition at 10 uM by SRB assay; format: functional, cell-based
[19] = test system: HCC 2998; experiment: Antiproliferative activity against human HCC 2998 cells assessed as cell growth inhibition at 10 uM by SRB assay; format: functional, cell-based
[20] = test system: HCT-116; experiment: Antiproliferative activity against human HCT-116 cells assessed as cell growth inhibition at 10 uM by SRB assay; format: functional, cell-based
[21] = test system: HCT-15; experiment: Antiproliferative activity against human HCT-15 cells assessed as cell growth inhibition at 10 uM by SRB assay; format: functional, cell-based
[22] = test system: HT-29; experiment: Antiproliferative activity against human HT-29 cells assessed as cell growth inhibition at 10 uM by SRB assay; format: functional, cell-based
[23] = test system: KM12; experiment: Antiproliferative activity against human KM12 cells assessed as cell growth inhibition at 10 uM by SRB assay; format: functional, cell-based
[24] = test system: SW-620; experiment: Antiproliferative activity against human SW620 cells assessed as cell growth inhibition at 10 uM by SRB assay; format: functional, cell-based
[25] = test system: U-251; experiment: Antiproliferative activity against human U-251 cells assessed as cell growth inhibition at 10 uM by SRB assay relative to control; format: functional
[26] = test system: SF-539; experiment: Antiproliferative activity against human SF-539 cells assessed as cell growth inhibition at 10 uM by SRB assay relative to control; format: functional
[27] = test system: UACC-257; experiment: Antiproliferative activity against human UACC-257 cells assessed as cell growth inhibition at 10 uM by SRB assay relative to control; format: functional
[28] = test system: UACC-62; experiment: Antiproliferative activity against human UACC-62 cells assessed as cell growth inhibition at 10 uM by SRB assay relative to control; format: functional
[29] = test system: LOX IMVI; experiment: Antiproliferative activity against human LOX IMVI cells assessed as cell growth inhibition at 10 uM by SRB assay relative to control; format: functional
[30] = test system: MDA-MB-435; experiment: Antiproliferative activity against human MDA-MB-435 cells assessed as cell growth inhibition at 10 uM by SRB assay relative to control; format: functional
[31] = test system: OVCAR-8; experiment: Antiproliferative activity against human OVCAR-8 cells assessed as cell growth inhibition at 10 uM by SRB assay relative to control; format: functional
[32] = test system: OVCAR-3; experiment: Antiproliferative activity against human OVCAR-3 cells assessed as cell growth inhibition at 10 uM by SRB assay relative to control; format: functional; conditions: pooled result: one value given for 2 cell lines, strains, targets or settings
[33] = test system: IGROV-1; experiment: Antiproliferative activity against human IGROV-1 cells assessed as cell growth inhibition at 10 uM by SRB assay relative to control; format: functional
[34] = test system: 786-0; experiment: Antiproliferative activity against human 786-0 cells assessed as inhibition of cell growth at 10 uM by SRB assay relative to control; format: functional
[35] = test system: RXF 393; experiment: Antiproliferative activity against human RXF 393 cells assessed as inhibition of cell growth at 10 uM by SRB assay relative to control; format: functional
[36] = test system: SN12C; experiment: Antiproliferative activity against human SN12C cells assessed as inhibition of cell growth at 10 uM by SRB assay relative to control; format: functional
[37] = test system: CAKI-1; experiment: Antiproliferative activity against human CAKI-1 cells assessed as inhibition of cell growth at 10 uM by SRB assay relative to control; format: functional
[38] = test system: DU-145; experiment: Antiproliferative activity against human DU-145 cells assessed as inhibition of cell growth at 10 uM by SRB assay; format: functional, cell-based
[39] = test system: Melanoma cell line; experiment: Antiproliferative activity against human melanoma cells assessed as cell growth inhibition at 10 uM by SRB assay relative to control; format: functional
[40] = Antiproliferative activity against human hematologic cancer cells assessed as cell growth inhibition at 10 uM by SRB assay relative to control; format: functional
[41] = Antiproliferative activity against human colon cancer cells assessed as cell growth inhibition at 10 uM by SRB assay relative to control; format: functional; conditions: Colon carcinoma cell
[42] = test system: Breast carcinoma cell; experiment: Antiproliferative activity against human breast cancer cells assessed as cell growth inhibition at 10 uM by SRB assay relative to control; format: functional; conditions: pooled result: one value given for 3 cell lines, strains, targets or settings
[43] = Antiproliferative activity against human brain cancer cells assessed as cell growth inhibition at 10 uM by SRB assay relative to control; format: functional
[44] = test system: RPMI-8226; experiment: Antiproliferative activity against human RPMI-8226 cells assessed as cell growth inhibition by SRB assay; format: functional

Compound: COc1cc2oc(-c3cccc(C(=O)Nc4ccc(C)cc4)c3)cc(=O)c2c(OC)c1OC
- inhibition at 10 µM [1]: 147%
- inhibition at 10 µM [2]: 92.9%
- inhibition at 10 µM [3]: 108%
- inhibition at 10 µM [4]: 70.1%
- inhibition [5]: Active
- inhibition [6]: Active
- inhibition [7]: Active
- inhibition [8]: Active
- inhibition [9]: Active
- inhibition [10]: Active
- inhibition [11]: Active
- inhibition [12]: Active
- inhibition [13]: Active
- inhibition [14]: Active
- inhibition at 10 µM [15]: 93.3%
- inhibition at 10 µM [16]: 82%
- inhibition at 10 µM [17]: 50.1%
- inhibition [18]: Active
- inhibition [19]: Active
- inhibition [20]: Active
- inhibition [21]: Active
- inhibition [22]: Active
- inhibition [23]: Active
- inhibition [24]: Active
- inhibition at 10 µM [25]: > 50%
- inhibition at 10 µM [26]: > 50%
- inhibition at 10 µM [27]: 70.1%
- inhibition at 10 µM [28]: 108%
- inhibition at 10 µM [29]: 108%
- inhibition at 10 µM [30]: 70.1%
- inhibition at 10 µM [31]: 51.8%
- inhibition at 10 µM [32]: 51.8%
- inhibition at 10 µM [33]: 51.8%
- inhibition at 10 µM [34]: 55.7%
- inhibition [35]: Active
- inhibition at 10 µM [36]: 55.7%
- inhibition at 10 µM [37]: 97.8%
- inhibition [38]: Active
- inhibition at 10 µM [39]: 95.9%
- inhibition at 10 µM [40]: 72.5%
- inhibition at 10 µM [41]: 72.5%
- inhibition at 10 µM [42]: 53.4%
- inhibition at 10 µM [43]: 64.7%
- GI50 [44]: 370 nM

Reference: ChEMBL document CHEMBL5260845, “Flavone-based arylamides as potential anticancers: Design, synthesis and in vitro cell-based/cell-free evaluations” (2020)
